Assay results from publication PMC11181322, “Copper(II) Complexes with Isomeric Morpholine-Substituted 2-Formylpyridine Thiosemicarbazone Hybrids as Potential Anticancer Drugs Inhibiting Both Ribonucleotide Reductase and Tubulin Polymerization: The Morpholine Position Matters” (Journal of Medicinal Chemistry, 2024).

Experiments:
MES-SA cells = test: dNTP pools in MES-SA cell extracts; format: cell-based, human; details: at both concentrations (10 and 25 μM), 24 h
Text: RNR reduces NDPs to their corresponding deoxy derivatives (dNDPs), which are further converted into dNTPs.[77] Therefore, we investigated the effect of the most toxic proligand H2L^6 and its copper(II) complex 6 on cellular dNTP levels, using Triapine as a control. […] Triapine also elicits a dATP pool decrease while increasing the pools of the three other dNTP species. Decreasing the dATP pool to zero can give rise to the observed cytotoxic effect upon treatment with Triapine. Complex 6 seems to affect dNTP pools by a more complex mechanism, which is nevertheless consistent with R2 inhibition.[79]
Figure 8 Measurement of dNTP pools in MES-SA cell extracts following a 24 h treatment with proligand H2L^6, complex 6, or Triapine at the indicated concentrations. Three independent experiments were performed; error bars represent standard error; stars indicate significant changes compared to the respective control (Ctrl) at p < 0.05.
After a 24 h incubation with or without drugs, MES-SA cells were washed twice with PBS and trypsinized for 5 min. […] The pellet containing dNTPs was redissolved in 50 μL of RNase-free water and stored at −20 °C. dNTP-containing samples were measured by a nucleotide incorporation-based fluorescent method.[97] We used a long synthetic oligonucleotide (197 nt) as a template, which contains a dNTP-detection site, the sole complementary base to that of the dNTP to be quantified directly adjacent to the annealed primer. […] In addition to the limiting amount of dNTP to be quantified, the polymerization reaction mix contained the other three dNTPs in large excess. The double-stranded DNA product is detected by the EvaGreen Dye. The 2X master mix for the DNA synthesis reaction contained the following: 0.275 μM primer (Merck KGaA, Darmstadt, Germany), 0.25 μM template (IDT, Coralville, Iowa, USA), 50 μM dNTP mix (excluding the dNTP to be measured in the given experiment to limit its source to the sample), and 1.25 μM EvaGreen (Biotium). […] Fluorescence amplitude data were extracted from the Bio-Rad CFX Maestro Software and analyzed using Excel and Origin. […]

tubulin = test: Inhibition of [3H]colchicine binding to tubulin; details: for inhibition of colchicine binding % inhibition ± SD: tubulin 0.5 μM, colchicine 5 μM

SMILES: Cc1cc(NC(=NN=Cc2cccc(CN3CCOCC3)n2)[S][Cu][Cl])cc(C)c1O [complex 6, [Cu(HL^6)Cl]·H2O]
- dATP and dTTP levels (MES-SA cells): marked decrease
- inhibition of colchicine binding % inhibition ± SD (tubulin; 5 μM inhibitor): 5.8 ± 5%
- inhibition of colchicine binding % inhibition ± SD (tubulin; 25 μM inhibitor): 33 ± 2%
- fold less potent than CA-4 in inhibiting [3H]colchicine binding (tubulin; at the 5 μM concentration): 17 fold
